Reference: ChEMBL document CHEMBL3991601, “The target landscape of clinical kinase drugs” (Science, 2017)
The source made the active and inactive calls. Cut-off read from the data, not from the text of the source, for most assays here: actives have a measured Kd and inactives only a lower limit.

Experiments:
[1] = molecular target: T1, Serine/threonine-protein kinase TAO1 (Homo sapiens, UniProt Q7L7X3)
T1 sequence (Q7L7X3 whole entry): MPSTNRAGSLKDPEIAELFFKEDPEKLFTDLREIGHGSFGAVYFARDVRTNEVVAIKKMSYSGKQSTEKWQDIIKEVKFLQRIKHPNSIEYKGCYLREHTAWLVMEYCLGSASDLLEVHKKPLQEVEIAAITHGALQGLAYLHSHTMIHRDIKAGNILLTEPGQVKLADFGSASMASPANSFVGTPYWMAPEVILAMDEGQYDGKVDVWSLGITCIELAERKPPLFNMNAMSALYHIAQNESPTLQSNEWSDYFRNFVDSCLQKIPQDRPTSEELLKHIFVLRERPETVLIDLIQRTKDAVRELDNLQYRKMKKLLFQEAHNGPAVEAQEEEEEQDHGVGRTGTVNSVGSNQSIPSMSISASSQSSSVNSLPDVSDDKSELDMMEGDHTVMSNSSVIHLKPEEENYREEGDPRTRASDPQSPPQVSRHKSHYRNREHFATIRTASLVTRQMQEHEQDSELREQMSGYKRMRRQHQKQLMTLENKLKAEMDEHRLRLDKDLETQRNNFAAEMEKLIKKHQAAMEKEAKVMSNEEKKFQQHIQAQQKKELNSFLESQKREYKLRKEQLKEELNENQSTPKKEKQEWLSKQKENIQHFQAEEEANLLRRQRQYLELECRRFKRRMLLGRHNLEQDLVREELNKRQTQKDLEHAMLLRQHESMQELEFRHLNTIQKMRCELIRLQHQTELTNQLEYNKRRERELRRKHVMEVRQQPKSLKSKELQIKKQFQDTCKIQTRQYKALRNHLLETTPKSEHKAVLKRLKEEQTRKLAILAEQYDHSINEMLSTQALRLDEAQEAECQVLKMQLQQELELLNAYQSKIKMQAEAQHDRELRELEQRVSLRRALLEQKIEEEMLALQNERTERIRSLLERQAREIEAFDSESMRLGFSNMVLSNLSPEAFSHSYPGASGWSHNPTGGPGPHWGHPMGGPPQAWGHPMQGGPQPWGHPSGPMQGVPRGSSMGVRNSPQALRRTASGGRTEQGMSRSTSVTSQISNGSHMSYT

[2] = molecular target: T2, Serine/threonine-protein kinase 3 (Homo sapiens, UniProt Q13188)
T2 sequence (Q13188 whole entry): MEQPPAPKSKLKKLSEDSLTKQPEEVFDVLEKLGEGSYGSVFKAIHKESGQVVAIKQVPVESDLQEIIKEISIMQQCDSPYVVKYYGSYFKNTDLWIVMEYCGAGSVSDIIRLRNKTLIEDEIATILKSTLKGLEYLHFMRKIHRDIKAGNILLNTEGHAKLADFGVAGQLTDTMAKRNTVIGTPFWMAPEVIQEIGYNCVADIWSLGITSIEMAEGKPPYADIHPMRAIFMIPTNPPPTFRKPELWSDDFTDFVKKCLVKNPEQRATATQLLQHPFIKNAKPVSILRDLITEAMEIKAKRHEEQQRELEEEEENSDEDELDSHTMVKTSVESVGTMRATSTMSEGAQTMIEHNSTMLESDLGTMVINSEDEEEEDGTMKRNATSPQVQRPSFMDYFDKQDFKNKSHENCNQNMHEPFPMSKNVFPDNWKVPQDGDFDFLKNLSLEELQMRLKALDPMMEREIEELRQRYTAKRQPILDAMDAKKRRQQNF

[3] = molecular target: T3, Serine/threonine-protein kinase ULK1 (Homo sapiens, UniProt O75385)
T3 sequence (O75385 whole entry): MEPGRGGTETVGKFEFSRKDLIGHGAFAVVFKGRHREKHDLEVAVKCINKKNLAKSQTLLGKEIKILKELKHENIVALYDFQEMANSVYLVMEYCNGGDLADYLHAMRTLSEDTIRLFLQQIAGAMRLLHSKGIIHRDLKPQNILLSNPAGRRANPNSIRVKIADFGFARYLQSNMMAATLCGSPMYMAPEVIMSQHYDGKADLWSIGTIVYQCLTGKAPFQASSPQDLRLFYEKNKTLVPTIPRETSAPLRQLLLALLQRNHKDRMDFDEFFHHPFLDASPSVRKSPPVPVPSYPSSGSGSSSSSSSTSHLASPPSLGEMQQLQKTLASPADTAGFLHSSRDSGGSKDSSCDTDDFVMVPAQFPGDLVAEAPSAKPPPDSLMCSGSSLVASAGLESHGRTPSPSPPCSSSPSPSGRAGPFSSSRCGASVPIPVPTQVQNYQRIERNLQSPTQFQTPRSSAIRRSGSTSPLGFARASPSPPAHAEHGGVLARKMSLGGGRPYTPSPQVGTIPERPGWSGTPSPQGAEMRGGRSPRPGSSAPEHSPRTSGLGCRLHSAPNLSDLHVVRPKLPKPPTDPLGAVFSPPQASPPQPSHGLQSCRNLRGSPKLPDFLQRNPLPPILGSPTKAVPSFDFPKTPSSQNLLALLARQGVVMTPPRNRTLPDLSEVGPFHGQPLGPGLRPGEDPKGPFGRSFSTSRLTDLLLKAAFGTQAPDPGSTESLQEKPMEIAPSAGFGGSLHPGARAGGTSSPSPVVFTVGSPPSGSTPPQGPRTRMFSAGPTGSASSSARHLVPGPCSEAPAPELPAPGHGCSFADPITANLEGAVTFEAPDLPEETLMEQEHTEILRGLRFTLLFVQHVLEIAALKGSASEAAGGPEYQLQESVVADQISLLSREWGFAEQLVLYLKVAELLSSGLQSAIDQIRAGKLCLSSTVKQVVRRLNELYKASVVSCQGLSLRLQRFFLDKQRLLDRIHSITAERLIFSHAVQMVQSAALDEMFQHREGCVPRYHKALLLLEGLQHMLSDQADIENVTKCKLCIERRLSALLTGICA

Insulin receptor = Insulin receptor (Homo sapiens, UniProt P06213)
Insulin receptor, sequence (P06213 28-758 limits assumed): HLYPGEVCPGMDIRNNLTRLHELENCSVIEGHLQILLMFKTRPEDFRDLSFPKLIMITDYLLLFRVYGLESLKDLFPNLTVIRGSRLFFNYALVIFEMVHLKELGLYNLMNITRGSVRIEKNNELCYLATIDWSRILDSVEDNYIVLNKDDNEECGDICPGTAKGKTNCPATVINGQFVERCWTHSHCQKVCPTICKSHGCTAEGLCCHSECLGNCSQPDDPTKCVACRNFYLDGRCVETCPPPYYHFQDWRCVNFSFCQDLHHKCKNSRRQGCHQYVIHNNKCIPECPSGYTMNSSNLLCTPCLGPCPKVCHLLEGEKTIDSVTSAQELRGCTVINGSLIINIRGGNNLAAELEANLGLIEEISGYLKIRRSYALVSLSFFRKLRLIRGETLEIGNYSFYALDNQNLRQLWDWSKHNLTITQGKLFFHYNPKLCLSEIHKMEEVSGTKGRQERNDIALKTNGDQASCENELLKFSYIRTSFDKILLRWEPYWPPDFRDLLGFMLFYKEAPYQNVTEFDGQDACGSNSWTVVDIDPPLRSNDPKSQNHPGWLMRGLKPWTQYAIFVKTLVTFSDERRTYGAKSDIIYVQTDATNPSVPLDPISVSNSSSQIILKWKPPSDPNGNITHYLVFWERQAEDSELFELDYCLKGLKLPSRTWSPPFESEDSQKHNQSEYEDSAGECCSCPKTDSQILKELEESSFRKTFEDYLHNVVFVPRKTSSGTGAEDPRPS
Insulin receptor, sequence (P06213 763-1382 limits assumed): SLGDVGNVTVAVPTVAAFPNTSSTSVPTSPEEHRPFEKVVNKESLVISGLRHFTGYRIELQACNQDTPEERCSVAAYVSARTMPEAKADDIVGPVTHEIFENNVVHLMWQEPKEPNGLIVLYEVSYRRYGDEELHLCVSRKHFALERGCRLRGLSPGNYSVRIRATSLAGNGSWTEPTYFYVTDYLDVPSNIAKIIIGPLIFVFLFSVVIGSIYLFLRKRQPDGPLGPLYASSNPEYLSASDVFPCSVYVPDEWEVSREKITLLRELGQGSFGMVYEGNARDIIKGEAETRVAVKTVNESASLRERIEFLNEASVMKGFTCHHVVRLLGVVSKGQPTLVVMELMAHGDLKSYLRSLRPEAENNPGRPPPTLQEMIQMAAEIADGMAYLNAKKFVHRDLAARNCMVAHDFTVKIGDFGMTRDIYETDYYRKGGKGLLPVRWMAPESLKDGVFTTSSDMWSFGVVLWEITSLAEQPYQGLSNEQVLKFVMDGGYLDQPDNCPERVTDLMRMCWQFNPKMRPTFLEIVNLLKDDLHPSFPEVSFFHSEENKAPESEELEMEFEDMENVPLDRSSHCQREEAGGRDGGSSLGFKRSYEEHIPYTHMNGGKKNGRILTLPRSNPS
Note: in the data inactive means no Kd found up to 30 µM.

| SMILES | Kd [1] | Kd [2] | Kd [3] | Kd (Insulin receptor) |
| --- | --- | --- | --- | --- |
| Cc1nc2cc(-n3ncc(C(=O)c4cc5ccccc5[nH]4)c3N)ccc2[nH]1 [FGFR INHIBITOR DEBIO 1347] | > 30 µM (inactive) | > 30 µM (inactive) | > 30 µM (inactive) | > 30 µM (inactive) |
| O=C(Nc1nc2cccc(-c3ccc(CN4CCS(=O)(=O)CC4)cc3)n2n1)C1CC1 [FILGOTINIB] | > 30 µM (inactive) | > 30 µM (inactive) | > 30 µM (inactive) | > 30 µM (inactive) |
| Cc1cccc(-c2nn3c(c2-c2ccnc4ccc(C(N)=O)cc24)CCC3)n1 [GALUNISERTIB] | > 30 µM (inactive) | > 30 µM (inactive) | > 30 µM (inactive) | > 30 µM (inactive) |
| COc1ccc(S(=O)(=O)N(C(C)=O)c2ccccc2/C=C/c2cc[n+]([O-])cc2)cc1 [HMN-214] | > 30 µM (inactive) | > 30 µM (inactive) | > 30 µM (inactive) | > 30 µM (inactive) |
| CNC(=O)c1cccc2cc(Oc3ccnc4cc(OCC5(N)CC5)c(OC)cc34)ccc12 [LUCITANIB] | > 30 µM (inactive) | > 30 µM (inactive) | > 30 µM (inactive) | > 30 µM (inactive) |
| NC1(c2ccc(-c3nc4ccn5c(=O)[nH]nc5c4cc3-c3ccccc3)cc2)CCC1 [MK-2206] | > 30 µM (inactive) | > 30 µM (inactive) | > 30 µM (inactive) | > 30 µM (inactive) |
| CN(C[C@@H]1COCCO1)S(=O)(=O)Nc1ccc2ccc3ncc(-c4cnn(C)c4)cc3c(=O)c2c1 [MK-2461] | > 30 µM (inactive) | > 30 µM (inactive) | > 30 µM (inactive) | > 30 µM (inactive) |
| Cn1cc(-c2cnc3ccc4ccc(CS(=O)(=O)NCc5ccccn5)cc4c(=O)c3c2)cn1 [MK-8033] | > 30 µM (inactive) | > 30 µM (inactive) | > 30 µM (inactive) | > 30 µM (inactive) |
| FC(F)(F)c1ccc(/C=C/c2nc(COc3ccc(CCCCn4ccnn4)cc3)co2)cc1 [MUBRITINIB] | > 30 µM (inactive) | > 30 µM (inactive) | > 30 µM (inactive) | > 30 µM (inactive) |
| COc1ncc(-c2ccc3nccc(-c4ccnnc4)c3c2)cc1NS(=O)(=O)c1ccc(F)cc1F [OMIPALISIB] | > 30 µM (inactive) | > 30 µM (inactive) | > 30 µM (inactive) | > 30 µM (inactive) |
| CCOc1cc2ncc(C#N)c(Nc3ccc(F)c(Cl)c3)c2cc1NC(=O)/C=C/CN(C)C [PELITINIB] | > 30 µM (inactive) | > 30 µM (inactive) | > 30 µM (inactive) | > 30 µM (inactive) |
| CCCCCCCCCCCCCCCCCCOP(=O)([O-])OC1CC[N+](C)(C)CC1 [PERIFOSINE] | > 30 µM (inactive) | > 30 µM (inactive) | > 30 µM (inactive) | > 30 µM (inactive) |
| Cc1nc(Nc2n[nH]c3c2CN(C(=O)N[C@H](CN(C)C)c2ccccc2)C3(C)C)c2sccc2n1 [PF-03758309] | > 30 µM (inactive) | 2.2 µM (active) | > 30 µM (inactive) | > 30 µM (inactive) |
| Cc1cnc(NC(=O)Nc2cc(Br)c(C)cc2OC[C@@H]2CNCCO2)cn1 [RABUSERTIB] | > 30 µM (inactive) | > 30 µM (inactive) | > 30 µM (inactive) | > 30 µM (inactive) |
| CNC(=O)c1cc(Oc2ccc(NC(=O)Nc3cc(C(C)(C)C)nn3-c3ccc4ncccc4c3)c(F)c2)ccn1 [REBASTINIB] | > 30 µM (inactive) | 12.1 µM (active) | > 30 µM (inactive) | > 30 µM (inactive) |
| CO[C@H]1C[C@@H]2CC[C@@H](C)[C@@](O)(O2)C(=O)C(=O)N2CCCC[C@H]2C(=O)O[C@H]([C@H](C)C[C@@H]2CC[C@@H](OP(C)(C)=O)[C@H](OC)C2)CC(=O)[C@H](C)/C=C(\C)[C@@H](O)[C@@H](OC)C(=O)[C@H](C)C[C@H](C)/C=C/C=C/C=C/1C [RIDAFOROLIMUS] | > 30 µM (inactive) | > 30 µM (inactive) | > 30 µM (inactive) | > 30 µM (inactive) |
| N#CC1(c2ccc(NC(=O)c3cccnc3NCc3ccncc3)cc2)CCCC1 [RIVOCERANIB] | > 30 µM (inactive) | > 30 µM (inactive) | > 30 µM (inactive) | > 30 µM (inactive) |
| O=c1[nH]ccc2cc(OC3CCNCC3)ccc12 [SAR-407899 FREE BASE] | > 30 µM (inactive) | > 30 µM (inactive) | > 30 µM (inactive) | > 30 µM (inactive) |
| CN1CCN(CCOc2cc(OC3CCOCC3)c3c(Nc4c(Cl)ccc5c4OCO5)ncnc3c2)CC1 [SARACATINIB] | > 30 µM (inactive) | > 30 µM (inactive) | > 30 µM (inactive) | > 30 µM (inactive) |
| Cn1cc(-c2cnn3c(N)c(Br)c([C@@H]4CCCNC4)nc23)cn1 [SCH-900776] | > 30 µM (inactive) | > 30 µM (inactive) | > 30 µM (inactive) | > 30 µM (inactive) |
| CO[C@H]1C[C@@H]2CC[C@@H](C)[C@@](O)(O2)C(=O)C(=O)N2CCCC[C@H]2C(=O)O[C@H]([C@H](C)C[C@@H]2CC[C@@H](O)[C@H](OC)C2)CC(=O)[C@H](C)/C=C(\C)[C@@H](O)[C@@H](OC)C(=O)[C@H](C)C[C@H](C)/C=C/C=C/C=C/1C [SIROLIMUS] | > 30 µM (inactive) | > 30 µM (inactive) | > 30 µM (inactive) | > 30 µM (inactive) |
| CCS(=O)(=O)c1cccc(-c2cc(C(=O)NC3CCN(C)CC3)c(C)c3[nH]c4ncc(C)cc4c23)c1 [TAK-901] | > 30 µM (inactive) | 2.76 µM (active) | > 30 µM (inactive) | > 30 µM (inactive) |
| CO[C@H]1C[C@@H]2CC[C@@H](C)[C@@](O)(O2)C(=O)C(=O)N2CCCC[C@H]2C(=O)O[C@H]([C@H](C)C[C@@H]2CC[C@@H](OC(=O)C(C)(CO)CO)[C@H](OC)C2)CC(=O)[C@H](C)/C=C(\C)[C@@H](O)[C@@H](OC)C(=O)[C@H](C)C[C@H](C)/C=C/C=C/C=C/1C [TEMSIROLIMUS] | > 30 µM (inactive) | > 30 µM (inactive) | > 30 µM (inactive) | > 30 µM (inactive) |
| COc1cc2c(Nc3ccc(Cl)c(Cl)c3F)ncnc2cc1OC[C@@H]1C[C@@H]2CN(C)C[C@@H]2C1 [TESEVATINIB] | > 30 µM (inactive) | > 30 µM (inactive) | > 30 µM (inactive) | > 30 µM (inactive) |
